Columns and labels:
lipoamide = compound: NC(=O)CCCCC1CCSS1 [lipoamide]; test: thermal stability z-score vs DMSO; higher = more thermally stabilized by treatment; conditions: HeLa, lipoamide concentration 100 µM
Protocol: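 Cellular thermal proteome profiling in HeLa cells. Cells were treated with 100 µM lipoamide for 1 h, with or without 1 mM arsenate for a further 1 h, then heated to ten temperatures (37-66.3 °C), and soluble protein was quantified by TMT mass spectrometry relative to 0.1% DMSO controls. The thermal stability score (sum of log2 fold changes minus the abundance score) was transformed to a z-score; mean of n = 3 experiments.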

potassium arsenate = compound: O=[As]([O-])(O)O.[K+] [potassium arsenate]; test: as above; conditions: HeLa; arsenate concentration 1 mM
Protocol: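 Cellular thermal proteome profiling in HeLa cells treated with 1 mM arsenate for 1 h (DMSO pretreatment), heated to ten temperatures (37-66.3 °C). Soluble protein was quantified by TMT mass spectrometry relative to DMSO controls; the thermal stability score was transformed to a z-score; mean of n = 3 experiments.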

[1] = arsenate co-treatment: 1 mM arsenate 1 h
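Note: each temperature applied for 3 min, abundance score taken as mean log2 fold change at the two lowest temperatures, z-score obtained by mean subtraction and division by SD.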

RABL6 (UniProt Q3YEC7)
thermal stability z-score (lipoamide; [1]): -0.678
thermal stability z-score (lipoamide; arsenate co-treatment: none): -0.754
thermal stability z-score (potassium arsenate): -0.246

TMEM97 (UniProt Q5BJF2)
thermal stability z-score (lipoamide; [1]): 0.385
thermal stability z-score (lipoamide; arsenate co-treatment: none): 0.189
thermal stability z-score (potassium arsenate): 0.108

MRPL24 (UniProt Q96A35)
thermal stability z-score (lipoamide; [1]): -0.411
thermal stability z-score (lipoamide; arsenate co-treatment: none): -0.311
thermal stability z-score (potassium arsenate): -0.261

CLASP1 (UniProt Q7Z460)
thermal stability z-score (lipoamide; [1]): -0.602
thermal stability z-score (lipoamide; arsenate co-treatment: none): -0.311
thermal stability z-score (potassium arsenate): -0.0658

PITPNB (UniProt P48739)
thermal stability z-score (lipoamide; [1]): -0.0644
thermal stability z-score (lipoamide; arsenate co-treatment: none): 0.129
thermal stability z-score (potassium arsenate): -1.18

VAT1 (UniProt Q99536)
thermal stability z-score (lipoamide; [1]): 0.819
thermal stability z-score (lipoamide; arsenate co-treatment: none): 0.762
thermal stability z-score (potassium arsenate): 1.37

RBM39 (UniProt Q14498)
thermal stability z-score (lipoamide; [1]): -0.398
thermal stability z-score (lipoamide; arsenate co-treatment: none): 0.0967
thermal stability z-score (potassium arsenate): -0.546

COX15 (UniProt Q7KZN9)
thermal stability z-score (lipoamide; [1]): -0.206
thermal stability z-score (lipoamide; arsenate co-treatment: none): -0.206
thermal stability z-score (potassium arsenate): 0.257

DBR1 (UniProt Q9UK59)
UniProt Q9UK59, sequence (Q9UK59 whole entry): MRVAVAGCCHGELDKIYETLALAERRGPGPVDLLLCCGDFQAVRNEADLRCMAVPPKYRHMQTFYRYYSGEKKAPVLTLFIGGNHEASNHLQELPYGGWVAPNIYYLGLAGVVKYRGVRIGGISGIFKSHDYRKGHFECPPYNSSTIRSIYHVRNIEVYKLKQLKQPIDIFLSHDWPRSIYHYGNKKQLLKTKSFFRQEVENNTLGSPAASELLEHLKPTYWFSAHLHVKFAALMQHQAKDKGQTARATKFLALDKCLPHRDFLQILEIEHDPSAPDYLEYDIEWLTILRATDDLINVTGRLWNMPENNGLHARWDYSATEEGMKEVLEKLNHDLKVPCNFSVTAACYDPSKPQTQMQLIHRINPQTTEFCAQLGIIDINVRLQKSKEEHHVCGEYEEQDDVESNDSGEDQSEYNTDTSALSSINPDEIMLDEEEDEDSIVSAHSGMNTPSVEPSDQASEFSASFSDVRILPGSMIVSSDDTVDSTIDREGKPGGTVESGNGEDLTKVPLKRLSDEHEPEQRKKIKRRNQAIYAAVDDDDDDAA
thermal stability z-score (lipoamide; [1]): 0.0885
thermal stability z-score (lipoamide; arsenate co-treatment: none): -0.174
thermal stability z-score (potassium arsenate): 0.5

L2HGDH (UniProt Q9H9P8)
UniProt Q9H9P8, sequence (Q9H9P8 whole entry): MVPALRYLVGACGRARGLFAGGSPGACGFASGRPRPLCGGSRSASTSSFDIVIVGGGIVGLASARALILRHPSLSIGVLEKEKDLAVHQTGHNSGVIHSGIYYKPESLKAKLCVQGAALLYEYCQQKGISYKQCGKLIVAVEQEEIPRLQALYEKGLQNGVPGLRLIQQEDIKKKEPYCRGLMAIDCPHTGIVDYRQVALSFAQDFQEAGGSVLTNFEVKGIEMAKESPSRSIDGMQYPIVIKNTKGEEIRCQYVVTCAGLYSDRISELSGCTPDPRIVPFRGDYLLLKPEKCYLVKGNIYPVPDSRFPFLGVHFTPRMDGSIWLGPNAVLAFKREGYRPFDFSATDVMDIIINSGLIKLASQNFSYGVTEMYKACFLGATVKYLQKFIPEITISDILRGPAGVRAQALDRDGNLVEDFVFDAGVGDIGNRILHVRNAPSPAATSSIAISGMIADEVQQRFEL
thermal stability z-score (lipoamide; [1]): -0.736
thermal stability z-score (lipoamide; arsenate co-treatment: none): -0.362
thermal stability z-score (potassium arsenate): 0.523

NCOR1 (UniProt O75376)
thermal stability z-score (lipoamide; [1]): -0.0471
thermal stability z-score (lipoamide; arsenate co-treatment: none): -0.0243
thermal stability z-score (potassium arsenate): -0.0899

NUB1 (UniProt Q9Y5A7)
thermal stability z-score (lipoamide; [1]): -0.391
thermal stability z-score (lipoamide; arsenate co-treatment: none): 0.421
thermal stability z-score (potassium arsenate): 1.15

JADE3 (UniProt Q92613)
thermal stability z-score (lipoamide; [1]): -0.12
thermal stability z-score (lipoamide; arsenate co-treatment: none): 0.143
thermal stability z-score (potassium arsenate): -0.474

DCAF15 (UniProt Q66K64)
thermal stability z-score (lipoamide; [1]): 0.165
thermal stability z-score (lipoamide; arsenate co-treatment: none): -0.178
thermal stability z-score (potassium arsenate): -0.174

STBD1 (UniProt O95210)
thermal stability z-score (lipoamide; [1]): -0.616
thermal stability z-score (lipoamide; arsenate co-treatment: none): 0.112
thermal stability z-score (potassium arsenate): 0.149

ZMYM3 (UniProt Q14202)
UniProt Q14202, sequence (Q14202 whole entry): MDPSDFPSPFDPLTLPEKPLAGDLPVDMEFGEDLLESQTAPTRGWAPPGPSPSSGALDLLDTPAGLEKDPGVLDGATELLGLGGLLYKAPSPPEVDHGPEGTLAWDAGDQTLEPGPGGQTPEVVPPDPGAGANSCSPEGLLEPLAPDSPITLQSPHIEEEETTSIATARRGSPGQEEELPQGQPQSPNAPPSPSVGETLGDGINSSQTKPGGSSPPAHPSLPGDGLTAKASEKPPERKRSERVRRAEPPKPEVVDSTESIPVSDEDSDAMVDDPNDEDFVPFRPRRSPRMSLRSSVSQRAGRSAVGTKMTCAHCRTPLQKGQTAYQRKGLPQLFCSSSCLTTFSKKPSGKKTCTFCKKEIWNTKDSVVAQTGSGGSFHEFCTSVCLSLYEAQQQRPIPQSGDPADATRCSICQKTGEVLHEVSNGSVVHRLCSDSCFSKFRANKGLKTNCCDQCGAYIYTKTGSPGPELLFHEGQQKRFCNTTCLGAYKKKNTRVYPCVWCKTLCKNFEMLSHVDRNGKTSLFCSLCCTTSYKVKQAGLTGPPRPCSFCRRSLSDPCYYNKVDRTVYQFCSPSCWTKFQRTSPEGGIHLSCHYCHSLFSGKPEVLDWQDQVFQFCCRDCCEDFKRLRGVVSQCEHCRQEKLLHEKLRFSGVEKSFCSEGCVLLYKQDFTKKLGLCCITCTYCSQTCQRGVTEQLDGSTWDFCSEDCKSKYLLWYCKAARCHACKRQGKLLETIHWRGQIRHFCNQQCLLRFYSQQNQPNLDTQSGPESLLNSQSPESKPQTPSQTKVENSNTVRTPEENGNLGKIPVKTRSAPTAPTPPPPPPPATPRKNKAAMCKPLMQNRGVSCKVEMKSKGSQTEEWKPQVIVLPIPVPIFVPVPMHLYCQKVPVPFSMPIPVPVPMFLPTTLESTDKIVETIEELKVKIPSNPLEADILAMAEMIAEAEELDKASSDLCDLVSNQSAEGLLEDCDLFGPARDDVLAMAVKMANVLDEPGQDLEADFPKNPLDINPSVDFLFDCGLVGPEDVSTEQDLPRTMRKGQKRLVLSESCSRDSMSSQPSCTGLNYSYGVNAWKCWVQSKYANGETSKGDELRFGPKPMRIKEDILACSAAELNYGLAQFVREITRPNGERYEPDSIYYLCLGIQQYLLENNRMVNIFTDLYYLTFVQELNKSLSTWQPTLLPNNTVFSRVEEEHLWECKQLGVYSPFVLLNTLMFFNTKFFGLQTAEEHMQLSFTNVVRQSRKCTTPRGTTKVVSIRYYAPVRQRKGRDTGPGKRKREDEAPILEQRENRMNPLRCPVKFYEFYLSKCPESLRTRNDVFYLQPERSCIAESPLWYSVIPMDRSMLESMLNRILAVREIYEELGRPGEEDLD
thermal stability z-score (lipoamide; [1]): 0.69
thermal stability z-score (lipoamide; arsenate co-treatment: none): 0.308
thermal stability z-score (potassium arsenate): -1.2

DSP (UniProt P15924)
thermal stability z-score (lipoamide; [1]): 3.08
thermal stability z-score (lipoamide; arsenate co-treatment: none): 3.94
thermal stability z-score (potassium arsenate): -0.576

GEMIN5 (UniProt Q8TEQ6)
thermal stability z-score (lipoamide; [1]): -0.411
thermal stability z-score (lipoamide; arsenate co-treatment: none): -0.402
thermal stability z-score (potassium arsenate): -0.93

RFC5 (UniProt P40937)
thermal stability z-score (lipoamide; [1]): -0.341
thermal stability z-score (lipoamide; arsenate co-treatment: none): -0.0735
thermal stability z-score (potassium arsenate): 0.971

ALKBH6 (UniProt Q3KRA9)
thermal stability z-score (lipoamide; [1]): 0.205
thermal stability z-score (lipoamide; arsenate co-treatment: none): 0.0821
thermal stability z-score (potassium arsenate): 3.15

CYLD (UniProt Q9NQC7)
UniProt Q9NQC7, sequence (Q9NQC7 whole entry): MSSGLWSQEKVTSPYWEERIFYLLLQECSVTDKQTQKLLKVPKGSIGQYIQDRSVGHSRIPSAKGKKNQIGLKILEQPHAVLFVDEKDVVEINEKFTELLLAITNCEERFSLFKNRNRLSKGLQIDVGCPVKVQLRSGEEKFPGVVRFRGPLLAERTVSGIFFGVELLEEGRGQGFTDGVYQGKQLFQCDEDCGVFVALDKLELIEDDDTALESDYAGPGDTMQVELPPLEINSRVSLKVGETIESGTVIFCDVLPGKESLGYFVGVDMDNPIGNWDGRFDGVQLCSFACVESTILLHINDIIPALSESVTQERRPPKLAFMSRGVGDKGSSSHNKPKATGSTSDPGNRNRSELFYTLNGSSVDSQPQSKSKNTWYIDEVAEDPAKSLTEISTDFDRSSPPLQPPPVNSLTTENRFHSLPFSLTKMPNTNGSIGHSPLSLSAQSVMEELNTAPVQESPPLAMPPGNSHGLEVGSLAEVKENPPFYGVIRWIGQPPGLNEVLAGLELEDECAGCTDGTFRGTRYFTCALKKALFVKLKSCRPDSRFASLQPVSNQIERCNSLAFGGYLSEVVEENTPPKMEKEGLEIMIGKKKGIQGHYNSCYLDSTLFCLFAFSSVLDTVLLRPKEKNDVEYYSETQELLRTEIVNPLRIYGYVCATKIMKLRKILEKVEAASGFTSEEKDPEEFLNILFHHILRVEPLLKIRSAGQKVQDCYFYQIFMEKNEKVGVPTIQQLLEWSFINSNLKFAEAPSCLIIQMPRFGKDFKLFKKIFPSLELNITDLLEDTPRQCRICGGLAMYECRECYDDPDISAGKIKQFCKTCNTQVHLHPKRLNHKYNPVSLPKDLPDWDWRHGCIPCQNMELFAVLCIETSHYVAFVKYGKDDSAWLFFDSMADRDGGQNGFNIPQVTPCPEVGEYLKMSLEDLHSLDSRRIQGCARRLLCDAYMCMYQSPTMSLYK
thermal stability z-score (lipoamide; [1]): -0.238
thermal stability z-score (lipoamide; arsenate co-treatment: none): 0.0192
thermal stability z-score (potassium arsenate): 0.144

CENPH (UniProt Q9H3R5)
thermal stability z-score (lipoamide; [1]): -0.976
thermal stability z-score (lipoamide; arsenate co-treatment: none): 0.153
thermal stability z-score (potassium arsenate): 0.184

ASNS (UniProt P08243)
thermal stability z-score (lipoamide; [1]): 1.69
thermal stability z-score (lipoamide; arsenate co-treatment: none): 0.131
thermal stability z-score (potassium arsenate): -0.303

DHX30 (UniProt Q7L2E3)
thermal stability z-score (lipoamide; [1]): -0.306
thermal stability z-score (lipoamide; arsenate co-treatment: none): 0.192
thermal stability z-score (potassium arsenate): -0.391

MT (UniProt Q8IVS2)
UniProt Q8IVS2, sequence (Q8IVS2 whole entry): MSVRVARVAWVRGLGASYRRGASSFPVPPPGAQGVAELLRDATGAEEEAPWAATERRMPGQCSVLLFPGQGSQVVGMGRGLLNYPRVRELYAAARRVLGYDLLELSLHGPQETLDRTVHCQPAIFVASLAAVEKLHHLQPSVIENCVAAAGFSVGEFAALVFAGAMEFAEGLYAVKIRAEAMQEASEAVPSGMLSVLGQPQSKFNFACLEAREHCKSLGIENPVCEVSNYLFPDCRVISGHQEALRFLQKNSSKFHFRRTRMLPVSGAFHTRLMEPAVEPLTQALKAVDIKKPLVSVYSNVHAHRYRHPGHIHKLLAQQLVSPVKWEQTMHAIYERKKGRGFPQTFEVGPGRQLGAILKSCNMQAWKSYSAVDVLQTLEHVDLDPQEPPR
thermal stability z-score (lipoamide; [1]): -0.281
thermal stability z-score (lipoamide; arsenate co-treatment: none): -0.555
thermal stability z-score (potassium arsenate): -0.404

HMGA1 (UniProt P17096)
thermal stability z-score (lipoamide; [1]): -0.361
thermal stability z-score (lipoamide; arsenate co-treatment: none): 0.993
thermal stability z-score (potassium arsenate): -0.692

EIF4ENIF1 (UniProt Q9NRA8)
UniProt Q9NRA8, sequence (Q9NRA8 whole entry): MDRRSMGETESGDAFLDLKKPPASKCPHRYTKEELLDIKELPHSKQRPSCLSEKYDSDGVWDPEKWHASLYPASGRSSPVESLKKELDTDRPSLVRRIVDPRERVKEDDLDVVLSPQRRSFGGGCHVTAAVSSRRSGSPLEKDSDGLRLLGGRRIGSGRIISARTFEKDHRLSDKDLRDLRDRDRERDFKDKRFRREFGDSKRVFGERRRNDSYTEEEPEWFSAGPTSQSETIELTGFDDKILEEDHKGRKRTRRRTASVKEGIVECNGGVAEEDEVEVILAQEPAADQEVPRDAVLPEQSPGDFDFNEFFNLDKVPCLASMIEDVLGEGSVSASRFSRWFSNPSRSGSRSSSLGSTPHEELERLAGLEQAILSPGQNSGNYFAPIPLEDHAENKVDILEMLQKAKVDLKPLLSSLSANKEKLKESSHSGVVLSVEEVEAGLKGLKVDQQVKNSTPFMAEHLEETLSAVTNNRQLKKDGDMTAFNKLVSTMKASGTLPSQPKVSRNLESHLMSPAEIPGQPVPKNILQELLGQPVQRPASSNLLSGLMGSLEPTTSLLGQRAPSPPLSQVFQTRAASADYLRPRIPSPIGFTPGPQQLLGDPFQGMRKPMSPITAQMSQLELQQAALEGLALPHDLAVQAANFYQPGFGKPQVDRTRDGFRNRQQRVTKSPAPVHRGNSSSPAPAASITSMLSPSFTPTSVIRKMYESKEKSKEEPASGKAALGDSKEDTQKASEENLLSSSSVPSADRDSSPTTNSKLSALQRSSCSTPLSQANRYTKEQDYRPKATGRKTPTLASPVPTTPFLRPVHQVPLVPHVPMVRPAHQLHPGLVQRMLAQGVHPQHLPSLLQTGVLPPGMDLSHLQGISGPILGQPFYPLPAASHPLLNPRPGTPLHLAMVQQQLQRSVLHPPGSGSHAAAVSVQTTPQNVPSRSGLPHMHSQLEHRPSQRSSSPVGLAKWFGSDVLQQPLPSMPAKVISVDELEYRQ
thermal stability z-score (lipoamide; [1]): -0.03
thermal stability z-score (lipoamide; arsenate co-treatment: none): 0.00167
thermal stability z-score (potassium arsenate): -0.0325

TRIM21 (UniProt P19474)
thermal stability z-score (lipoamide; [1]): -0.677
thermal stability z-score (lipoamide; arsenate co-treatment: none): -0.149
thermal stability z-score (potassium arsenate): 0.307

POLR2C (UniProt P19387)
thermal stability z-score (lipoamide; [1]): 0.705
thermal stability z-score (lipoamide; arsenate co-treatment: none): 1.15
thermal stability z-score (potassium arsenate): 0.481

MRPS12 (UniProt O15235)
thermal stability z-score (lipoamide; [1]): -0.367
thermal stability z-score (lipoamide; arsenate co-treatment: none): 0.0698
thermal stability z-score (potassium arsenate): 0.233

GATAD2B (UniProt Q8WXI9)
thermal stability z-score (lipoamide; [1]): 0.511
thermal stability z-score (lipoamide; arsenate co-treatment: none): 0.315
thermal stability z-score (potassium arsenate): -0.539

MTMR9 (UniProt Q96QG7)
thermal stability z-score (lipoamide; [1]): -0.0303
thermal stability z-score (lipoamide; arsenate co-treatment: none): 1.35
thermal stability z-score (potassium arsenate): -0.12

RAD50 (UniProt Q92878)
thermal stability z-score (lipoamide; [1]): 0.0652
thermal stability z-score (lipoamide; arsenate co-treatment: none): -0.163
thermal stability z-score (potassium arsenate): -0.768

SMC2 (UniProt O95347)
thermal stability z-score (lipoamide; [1]): 0.528
thermal stability z-score (lipoamide; arsenate co-treatment: none): 0.546
thermal stability z-score (potassium arsenate): 0.802

USP47 (UniProt Q96K76)
thermal stability z-score (lipoamide; [1]): -0.439
thermal stability z-score (lipoamide; arsenate co-treatment: none): -0.436
thermal stability z-score (potassium arsenate): 0.244

POLRMT (UniProt O00411)
thermal stability z-score (lipoamide; [1]): 0.314
thermal stability z-score (lipoamide; arsenate co-treatment: none): -0.744
thermal stability z-score (potassium arsenate): -0.331

CHMP5 (UniProt Q9NZZ3)
thermal stability z-score (lipoamide; [1]): 0.869
thermal stability z-score (lipoamide; arsenate co-treatment: none): 0.597
thermal stability z-score (potassium arsenate): -0.246

ZYG11B (UniProt Q9C0D3)
thermal stability z-score (lipoamide; [1]): -0.0727
thermal stability z-score (lipoamide; arsenate co-treatment: none): -0.16
thermal stability z-score (potassium arsenate): -0.142

TNS4 (UniProt Q8IZW8)
thermal stability z-score (lipoamide; [1]): -0.0278
thermal stability z-score (lipoamide; arsenate co-treatment: none): -0.078
thermal stability z-score (potassium arsenate): -0.0861

SERINC1 (UniProt Q9NRX5)
thermal stability z-score (lipoamide; [1]): 0.282
thermal stability z-score (lipoamide; arsenate co-treatment: none): -0.488
thermal stability z-score (potassium arsenate): 0.329

ASB6 (UniProt Q9NWX5)
thermal stability z-score (lipoamide; [1]): 0.441
thermal stability z-score (lipoamide; arsenate co-treatment: none): -0.288
thermal stability z-score (potassium arsenate): 0.506

CISD2 (UniProt Q8N5K1)
thermal stability z-score (lipoamide; [1]): 0.556
thermal stability z-score (lipoamide; arsenate co-treatment: none): 0.316
thermal stability z-score (potassium arsenate): -0.581

SLC7A6 (UniProt Q92536)
thermal stability z-score (lipoamide; [1]): -0.86
thermal stability z-score (lipoamide; arsenate co-treatment: none): -0.83
thermal stability z-score (potassium arsenate): -0.695

GARS (UniProt P41250)
thermal stability z-score (lipoamide; [1]): -0.224
thermal stability z-score (lipoamide; arsenate co-treatment: none): -0.223
thermal stability z-score (potassium arsenate): -0.919

TSEN2 (UniProt Q8NCE0)
thermal stability z-score (lipoamide; [1]): 0.337
thermal stability z-score (lipoamide; arsenate co-treatment: none): 0.418
thermal stability z-score (potassium arsenate): -0.00537

TSNAX (UniProt Q99598)
UniProt Q99598, sequence (Q99598 whole entry): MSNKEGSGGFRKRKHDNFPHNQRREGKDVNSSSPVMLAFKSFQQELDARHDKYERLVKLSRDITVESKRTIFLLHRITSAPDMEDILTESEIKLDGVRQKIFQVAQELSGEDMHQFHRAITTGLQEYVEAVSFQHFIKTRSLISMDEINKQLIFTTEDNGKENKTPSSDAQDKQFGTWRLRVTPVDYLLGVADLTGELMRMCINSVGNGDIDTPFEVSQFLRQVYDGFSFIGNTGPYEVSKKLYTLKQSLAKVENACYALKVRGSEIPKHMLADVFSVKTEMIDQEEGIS
thermal stability z-score (lipoamide; [1]): -0.075
thermal stability z-score (lipoamide; arsenate co-treatment: none): -0.0638
thermal stability z-score (potassium arsenate): -0.215

STK17A (UniProt Q9UEE5)
thermal stability z-score (lipoamide; [1]): -0.0669
thermal stability z-score (lipoamide; arsenate co-treatment: none): -0.0755
thermal stability z-score (potassium arsenate): 0.0862

NIFK (UniProt Q9BYG3)
thermal stability z-score (lipoamide; [1]): 1.5
thermal stability z-score (lipoamide; arsenate co-treatment: none): 0.467
thermal stability z-score (potassium arsenate): -1.78

ITPR1 (UniProt Q14643)
thermal stability z-score (lipoamide; [1]): -0.434
thermal stability z-score (lipoamide; arsenate co-treatment: none): -0.461
thermal stability z-score (potassium arsenate): -0.46

RAVER2 (UniProt Q9HCJ3)
thermal stability z-score (lipoamide; [1]): 0.204
thermal stability z-score (lipoamide; arsenate co-treatment: none): 0.253
thermal stability z-score (potassium arsenate): -0.0887

CWC15 (UniProt Q9P013)
thermal stability z-score (lipoamide; [1]): 1.65
thermal stability z-score (lipoamide; arsenate co-treatment: none): 0.526
thermal stability z-score (potassium arsenate): -0.193

RAB3D (UniProt O95716)
thermal stability z-score (lipoamide; [1]): 0.635
thermal stability z-score (lipoamide; arsenate co-treatment: none): 1.07
thermal stability z-score (potassium arsenate): 0.692

CASP3 (UniProt P42574)
thermal stability z-score (lipoamide; [1]): 0.382
thermal stability z-score (lipoamide; arsenate co-treatment: none): -0.0479
thermal stability z-score (potassium arsenate): -0.737

HSPE1 (UniProt P61604)
thermal stability z-score (lipoamide; [1]): 1.5
thermal stability z-score (lipoamide; arsenate co-treatment: none): 0.918
thermal stability z-score (potassium arsenate): 0.112

LBR (UniProt Q14739)
thermal stability z-score (lipoamide; [1]): -0.0763
thermal stability z-score (lipoamide; arsenate co-treatment: none): -0.097
thermal stability z-score (potassium arsenate): 0.0853

From the supplement of paper PMC12463676, “Small-molecule dissolution of stress granules by redox modulation benefits ALS models” (Nature Chemical Biology, 2025)
